The source of these data is US10793591B2, “Substituted nucleosides, nucleotides and analogs thereof” (priority 2012, dated 2020).

Data set [1] has as its target human mitochondrial RNA polymerase (Homo sapiens (Human), UniProt O00411). Kind of data set: DdRp assay: incorporation of nucleotides by human mitochondrial RNA polymerase (HMRP). Particulars: 100 μM NTP, single turnover, product band on gel.
In data set [2] the test system is HCV genotype 1b HCV replicon harbored in Huh7 cells. Nature of the data set: Combination testing in HCV replicon (MacSynergy II). It is filed as cell-based. As to conditions: for Synergy Volume: combination with compound 18, 72 h, MacSynergy II, Bliss independence model; for Determination: combination with compound 18, class from synergy volume.
Data set [3] concerns Huh-7 cells containing the self-replicating, subgenomic HCV replicon. Nature of the data set: HCV replicon assay (luciferase reporter). In kind it is cell-based. As to conditions: Hepatitis C virus, Huh-7, 72 h.
Data set [4] has as its system mitochondrial protein synthesis (COX-I relative to SDH-A) in HepG2 cells.

Where only a bound is given, the exact number is not on record here.

Chain of human mitochondrial RNA polymerase (O00411 42-1230): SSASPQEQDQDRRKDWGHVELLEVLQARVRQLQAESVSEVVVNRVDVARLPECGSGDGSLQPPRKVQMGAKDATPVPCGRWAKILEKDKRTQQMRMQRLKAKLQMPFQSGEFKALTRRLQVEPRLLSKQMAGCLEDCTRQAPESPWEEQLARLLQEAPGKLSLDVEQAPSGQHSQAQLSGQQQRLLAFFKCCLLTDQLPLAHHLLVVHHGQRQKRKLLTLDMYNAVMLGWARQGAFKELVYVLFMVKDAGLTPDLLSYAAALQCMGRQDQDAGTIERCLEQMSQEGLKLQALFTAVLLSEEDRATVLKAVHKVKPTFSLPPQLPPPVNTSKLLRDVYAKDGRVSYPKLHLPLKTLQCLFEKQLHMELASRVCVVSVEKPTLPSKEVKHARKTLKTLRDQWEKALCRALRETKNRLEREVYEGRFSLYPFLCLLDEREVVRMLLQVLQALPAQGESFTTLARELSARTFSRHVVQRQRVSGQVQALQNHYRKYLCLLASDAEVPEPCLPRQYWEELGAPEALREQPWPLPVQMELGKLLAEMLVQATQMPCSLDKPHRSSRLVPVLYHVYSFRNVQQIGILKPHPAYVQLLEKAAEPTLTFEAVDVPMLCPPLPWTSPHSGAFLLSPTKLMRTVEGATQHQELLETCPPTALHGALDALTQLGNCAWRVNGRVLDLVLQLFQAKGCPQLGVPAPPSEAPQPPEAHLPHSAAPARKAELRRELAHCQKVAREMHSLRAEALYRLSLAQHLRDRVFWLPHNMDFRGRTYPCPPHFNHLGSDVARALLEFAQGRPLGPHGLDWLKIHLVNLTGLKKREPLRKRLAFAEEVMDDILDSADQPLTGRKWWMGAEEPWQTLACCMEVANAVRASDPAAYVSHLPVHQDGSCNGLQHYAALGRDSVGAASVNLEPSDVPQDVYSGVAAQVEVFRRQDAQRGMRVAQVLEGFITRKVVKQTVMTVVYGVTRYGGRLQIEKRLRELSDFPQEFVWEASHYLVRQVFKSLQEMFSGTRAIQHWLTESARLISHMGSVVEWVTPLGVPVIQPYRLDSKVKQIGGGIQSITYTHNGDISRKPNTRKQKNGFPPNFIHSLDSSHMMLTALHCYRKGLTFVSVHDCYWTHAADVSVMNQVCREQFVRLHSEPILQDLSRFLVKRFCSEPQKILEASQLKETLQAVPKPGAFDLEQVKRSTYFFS

For the molecule `C[C@@]1(F)[C@H](O)[C@@H](COP(=O)(O)OP(=O)(O)OP(=O)(O)O)O[C@H]1n1ccc(=O)[nH]c1=O` [2′-Me-2′-F-UTP], the “incorporation by HMRP (template for UTP analogs, FIG. 10)” value in data set [1] is reported as “not efficient substrates for incorporation by HMRP”.
In the case of `Nc1ncnc2c1ncn2[C@@H]1O[C@H](COP(=O)(O)OP(=O)(O)OP(=O)(O)O)[C@@H](O)[C@H]1O` [ATP], in data set [1], the “incorporation by HMRP (template for GTP analogs, FIG. 11)” value was “poor substrate for incorporation”.
`COC(=O)N[C@H](C(=O)N1CCC[C@H]1c1nc(-c2ccc(-c3ccc(-c4c[nH]c([C@@H]5CCCN5C(=O)[C@@H](NC(=O)OC)C(C)C)n4)cc3)cc2)c[nH]1)C(C)C` [BMS-790052 (4001)]: in data set [2], the “Synergy Volume” value came out at 38.01 μM^2% and the Determination entry was “Synergistic (volumes in the 25-100 range indicate synergistic behavior)”.
Consider `CCOC(=O)[C@H](C)NP(=O)(N[C@@H](C)C(=O)OCC)OC[C@@]1(F)O[C@@H](n2ccc(=O)[nH]c2=O)[C@](C)(O)[C@@H]1O` [Compound 67], for which the 50% effective concentration (EC50) in data set [3] was 1000 to 10000 nM.
With `CC(C)OC(=O)[C@H](C)NP(=O)(N[C@@H](C)C(=O)OC(C)C)OC[C@@]1(F)O[C@@H](n2ccc(=O)[nH]c2=O)[C@](C)(O)[C@@H]1O` [Compound 70], the EC50 in data set [3] lay within 1000 to 10000 nM.
Same read-out and setting: next, `C=C=C[C@]1(O)[C@H](n2ccc(=O)[nH]c2=O)O[C@](F)(CO[P@@](=O)(N[C@@H](C)C(=O)OC(C)C)Oc2ccccc2)[C@H]1O` [Compound 73]: 1000 to 10000 nM; `C=C[C@]1(O)[C@H](n2ccc(=O)[nH]c2=O)O[C@](F)(COP(=O)(N[C@@H](C)C(=O)OC(C)C)Oc2ccccc2)[C@H]1O` (stereo partly shown) [Compound 77]: 1000 to 10000 nM; `CCOc1nc(N)nc2c1ncn2[C@@H]1O[C@]2(F)COP(=O)(OCC)O[C@H]2[C@@]1(C)F` (stereo partly shown) [Compound 79]: < 1000 nM.
The same measure, in the same setting: next, `CCOc1nc(N)nc2c1ncn2[C@@H]1O[C@]2(F)COP(=O)(OCC(C)C)O[C@H]2[C@@]1(C)F` (stereo partly shown) [Compound 80]: 1000 to 10000 nM; `CCOc1nc(N)nc2c1ncn2[C@@H]1O[C@]2(F)COP(=O)(OC(C)C)O[C@H]2[C@@]1(C)F` (stereo partly shown) [Compound 81]: < 1000 nM; `CCOc1nc(N)nc2c1ncn2C1O[C@](F)(COP(=O)(N[C@@H](C)C(=O)OC(C)C)Oc2cccc3ccccc23)[C@@H](O)[C@@]1(C)F` (stereo partly shown) [Compound 83]: < 1000 nM.
With `CCOc1nc(N)nc2c1ncn2C1O[C@](F)(COP(=O)(N[C@@H](C)C(=O)OC(C)C)Oc2ccccc2)[C@@H](O)[C@@]1(C)F` (stereo partly shown) [Compound 85], the EC50 in data set [3] is < 1000 nM.
On the same count and under the same terms, as for `CCOc1nc(N)nc2c1ncn2C1O[C@](F)(COP(=O)(N[C@@H](C)C(=O)OCC(C)C)Oc2ccccc2)[C@@H](O)[C@@]1(C)F` (stereo partly shown) [Compound 86], the figure is < 1000 nM.
Still for that read-out and setting: next, `CCOc1nc(N)nc2c1ncn2[C@@H]1O[C@](F)(COP(=O)(N[C@@H](C)C(=O)OC2CCCC2)Oc2ccccc2)[C@@H](O)[C@@]1(C)F` (stereo partly shown) [Compound 87]: < 1000 nM; `CCOc1nc(N)nc2c1ncn2[C@@H]1O[C@](F)(COP(=O)(N[C@@H](C)C(=O)OC(CC)CC)Oc2ccccc2)[C@@H](O)[C@@]1(C)F` (stereo partly shown) [Compound 88]: < 1000 nM.
On the same count and under the same terms, as for `CCOc1nc(N)nc2c1ncn2[C@@H]1O[C@](F)(COP(=O)(N[C@@H](C)C(=O)OCC(C)(C)C)Oc2cccc3ncccc23)[C@@H](O)[C@@]1(C)F` (stereo partly shown) [Compound 89], the figure is < 1000 nM.
In the case of `CCOc1nc(N)nc2c1ncn2[C@@H]1O[C@](F)(COP(=O)(N[C@@H](C)C(=O)OCC(C)(C)C)Oc2cccc3ccccc23)[C@@H](O)[C@@]1(C)F` (stereo partly shown) [Compound 90], in data set [3], the EC50 is < 1000 nM.
Still for that read-out and setting: as for `CCOc1nc(N)nc2c1ncn2[C@@H]1O[C@](F)(COP(=O)(N[C@@H](C)C(=O)OCC(C)(C)C)Oc2ccccc2)[C@@H](O)[C@@]1(C)F` (stereo partly shown) [Compound 91], the figure is < 1000 nM.
For the molecule `CCc1cc(CC[C@]2(C3CCCC3)CC(O)=C(Cc3nc4nc(C)cc(C)n4n3)C(=O)O2)cc(CC)n1` [Filibuvir (3007)], in data set [2], the “Synergy Volume” value is reported as 23.51 μM^2% and the Determination entry was “Additive (volumes in the −25-25 range indicate additive behavior)”.
Take `CNC(=O)c1c(-c2ccc(F)cc2)oc2cc(N(CCO)S(C)(=O)=O)c(C3CC3)cc12` [HCV-796 (3004)]: in data set [2], the “Synergy Volume” value is recorded as 81.72 μM^2% and the Determination entry was “Synergistic (volumes in the 25-100 range indicate synergistic behavior)”.
Take `COc1nc(N)nc2c1ncn2[C@@H]1O[C@H](COP(=O)(N[C@@H](C)C(=O)OCC(C)(C)C)Oc2cccc3ccccc23)[C@@H](O)[C@@]1(C)O` (stereo partly shown) [INX-08189/BMS-986094]: in data set [4], the “inhibition of mitochondrial protein synthesis” value is on record as “strongly inhibit mitochondrial protein synthesis”.
In the case of `NC(=O)c1ncn([C@@H]2O[C@H](CO)[C@@H](O)[C@H]2O)n1` [Ribavirin (5012), Ribavirin], in data set [2], the “Synergy Volume” value amounted to 6.77 μM^2% and the Determination entry is on record as “Additive (volumes in the −25-25 range indicate additive behavior)”.
The corresponding values for `COc1ccc2c(O[C@@H]3C[C@H]4C(=O)N[C@]5(C(=O)NS(=O)(=O)C6CC6)C[C@H]5/C=C\CCCCN(C)C(=O)[C@@H]4C3)cc(-c3nc(C(C)C)cs3)nc2c1C` [TMC-435 (1013)] are 97.17 μM^2% and “Synergistic (volumes in the 25-100 range indicate synergistic behavior)”.
For `CC(C)(C)C#Cc1cc(N(C(=O)[C@H]2CC[C@H](C)CC2)[C@H]2CC[C@H](O)CC2)c(C(=O)O)s1` [VX-222 (3003)], in that order: 32.35 μM^2% and “Synergistic (volumes in the 25-100 range indicate synergistic behavior)”.
The corresponding values for `CCC[C@H](NC(=O)[C@@H]1[C@H]2CCC[C@H]2CN1C(=O)[C@@H](NC(=O)[C@@H](NC(=O)c1cnccn1)C1CCCCC1)C(C)(C)C)C(=O)C(=O)NC1CC1` [VX-950 (1001)] are 32.28 μM^2% and “Synergistic (volumes in the 25-100 range indicate synergistic behavior)”.
For `Cc1cn([C@H]2C=C[C@@H](CO)O2)c(=O)[nH]c1=O` [d4T], the “inhibition of mitochondrial protein synthesis” value in data set [4] is on record as “not to inhibit mitochondrial protein synthesis at concentrations up to 100 μM”.
Same read-out and setting: next, `Nc1ccn([C@H]2CC[C@@H](CO)O2)c(=O)n1` [ddC]: “strongly inhibit mitochondrial protein synthesis”.
